Data as given in patent EP4624472A1, “DEGRADER INCLUDING NOVEL C-MET PROTEIN LIGAND AND PHARMACEUTICAL COMPOSITION INCLUDING SAME” (Innocure Therapeutics, Inc., priority 2022, dated 2024).

What was measured:
[1] = molecular target: T1, c-MET (Homo sapiens, UniProt P08581); test: c-MET protein degradation (Simple Western) in EBC-1 cells; assay type: cell-based; design: To evaluate the degradation efficacy of the compounds of the present invention for c-MET expressed in cells; endogenous in cells; host or cells: EBC-1 (human lung cancer cell line); details: EBC-1, lung cancer cell line treated 48 hours; c-MET expression normalized to GAPDH, 0.1% DMSO = 100%; read-out: In vitro cell viability assay (nM) EBC-1 DC50
Experimental: (§1) The c-MET overexpressing human gastric cancer cell lines MKN45 and SNU638 were cultured in RPMI medium with 10% fetal bovine serum, penicillin (100 U/ml), and streptomycin ([…]), and the c-MET exon 14 skipping mutant human gastric cancer cell line Hs746T was cultured in DMEM media. The c-MET overexpressing human lung cancer cell line EBC-1 was cultured in MEM media with the addition of 10% fetal bovine serum, penicillin (100U/ml), and streptomycin ([…]). The normal cell line WI-38 derived from human lung tissue was cultured in EMEM medium with the addition of 10% fetal bovine serum, penicillin (100U/ml), and streptomycin ([…]).
(§2) The compound synthesized in accordance with the present invention was prepared with a raw material solution of 10 mM dissolved in DMSO (dimethyl sulfoxide), and was sequentially diluted and processed.
(§3) To evaluate the degradation efficacy of the compounds of the present invention for c-MET expressed in cells, cells were dispensed in a 12-well plate at a concentration of 2 × 10^5 cells/well, and then gastric cancer cell lines were treated with samples for 24 hours and lung cancer cell lines were treated for 48 hours.
(§4) To perform a western blotting assay to confirm protein expression, cells treated with a compound treated with 40 µL of RIPA buffer with a protease inhibitor for 30 minutes, collected cell lysate using a scraper on ice, and centrifuged at 4°C 15,000 rpm for 30 min to obtain a protein-containing supernatant.
(§5) Protein expression was then measured using the Simple Western Automated Western Blot System Abby instrument using 3 µg of protein for each sample. SDS and heat-induced denaturation proteins were separated by molecular weight, attached to the capillary, reacted with anti-c-MET or anti-GAPDH antibodies, which are primary antibodies, and then reacted with HRP-conjugated secondary antibodies, and analyzed the protein expression signal with compass software.
(§6) Protein expression was normalized based on the expression value of GAPDH, and the protein expression amount in each sample was measured as a percentage (%) based on 100% of samples treated with 0.1% DMSO carrier, and DC50 (concentration of a compound where 50% protein inhibition is achieved) was calculated from the change in protein expression amount due to compound treatment.

[2] = system: Hs746T; test: In vitro cell viability assay (cancer cell anti-proliferative activity), Hs746T; assay type: cell-based; details: Homo sapiens; Hs746T cells, treated 72 hours
Experimental: as §1, §2
(§7) In order to evaluate the inhibitory activity on cell growth, cells were dispensed in a 96-well plate at a concentration of 5,000 cells/well and then treated with the compound of the present invention prepared at various concentrations for 72 hours. The absorbance measurement at 450 nm was calculated using the GraphicPad Prism 8.0 software. The IC50 value (concentration of the compound achieving 50% cytostatic inhibition) is the average value of the measured results. […]

[3] = system: EBC-1; test: In vitro cell viability assay (cancer cell anti-proliferative activity), EBC-1; assay type: cell-based, human; details: Homo sapiens; EBC-1 cells, treated 72 hours; read-out: In vitro cell viability assay (nM) EBC-1 IC50
Experimental: as §1, §2, §7

[4] = molecular target: T2, c-MET (Homo sapiens, UniProt P08581, DEL964-1010); test: c-MET protein degradation (Simple Western) in Hs746T cells; assay type: cell-based; details: Hs746T (c-MET exon 14 skipping mutant), gastric cancer cell line treated 24 hours; c-MET expression normalized to GAPDH, 0.1% DMSO = 100%; read-out: In vitro cell viability assay (nM) Hs746T DC50
T2 construct: To evaluate the degradation efficacy of the compounds of the present invention for c-MET expressed in cells; endogenous in cells; host or cells: Hs746T (human gastric cancer cell line)
Experimental: as §1, §2, §3, §4, §5, §6

[5] = system: SNU-638; test: In vitro cell viability assay (cancer cell anti-proliferative activity), SNU-638; assay type: cell-based, human; details: Homo sapiens; SNU-638 cells, treated 72 hours; read-out: In vitro cell viability assay (nM) SNU-638 IC50
Experimental: as §1, §2, §7

[6] = molecular target: T1, c-MET; test: c-MET protein degradation (Simple Western) in SNU-638 cells; assay type: cell-based; design: To evaluate the degradation efficacy of the compounds of the present invention for c-MET expressed in cells; endogenous in cells; details: SNU-638, gastric cancer cell line treated 24 hours; c-MET expression normalized to GAPDH, 0.1% DMSO = 100%; read-out: In vitro cell viability assay (nM) SNU-638 DC50
Experimental: as §1, §2, §3, §4, §5, §6

T2 sequence (P08581 with tags, fused parts or gaps DEL964-1010 limits assumed): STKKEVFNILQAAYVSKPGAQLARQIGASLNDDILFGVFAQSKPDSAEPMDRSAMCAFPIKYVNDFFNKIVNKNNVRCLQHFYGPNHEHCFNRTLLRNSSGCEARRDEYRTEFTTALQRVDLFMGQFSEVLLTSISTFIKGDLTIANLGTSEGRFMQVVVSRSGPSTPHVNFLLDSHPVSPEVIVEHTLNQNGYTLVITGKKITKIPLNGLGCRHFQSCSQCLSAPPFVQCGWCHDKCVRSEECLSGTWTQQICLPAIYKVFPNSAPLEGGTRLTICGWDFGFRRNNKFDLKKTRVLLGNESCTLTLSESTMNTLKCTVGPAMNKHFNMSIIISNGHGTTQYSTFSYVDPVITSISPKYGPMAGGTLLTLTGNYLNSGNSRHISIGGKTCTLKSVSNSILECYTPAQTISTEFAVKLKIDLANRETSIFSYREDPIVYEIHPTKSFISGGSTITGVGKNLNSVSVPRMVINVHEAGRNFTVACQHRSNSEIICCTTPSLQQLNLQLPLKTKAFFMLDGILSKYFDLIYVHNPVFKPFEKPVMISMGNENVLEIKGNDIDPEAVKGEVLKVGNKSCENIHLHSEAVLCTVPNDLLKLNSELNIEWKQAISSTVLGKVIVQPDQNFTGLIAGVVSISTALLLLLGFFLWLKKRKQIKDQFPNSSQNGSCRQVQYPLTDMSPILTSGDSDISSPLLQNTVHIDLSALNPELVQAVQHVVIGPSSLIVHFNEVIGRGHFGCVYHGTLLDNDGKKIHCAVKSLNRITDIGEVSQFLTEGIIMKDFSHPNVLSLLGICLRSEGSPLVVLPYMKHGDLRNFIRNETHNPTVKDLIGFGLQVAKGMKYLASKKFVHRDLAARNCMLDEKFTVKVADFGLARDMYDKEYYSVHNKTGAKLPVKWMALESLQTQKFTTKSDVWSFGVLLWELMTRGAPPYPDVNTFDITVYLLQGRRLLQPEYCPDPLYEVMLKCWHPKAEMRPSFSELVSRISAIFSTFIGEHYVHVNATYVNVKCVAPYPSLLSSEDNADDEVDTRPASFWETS
T2 sequence (P08581 25-307 partner limits assumed): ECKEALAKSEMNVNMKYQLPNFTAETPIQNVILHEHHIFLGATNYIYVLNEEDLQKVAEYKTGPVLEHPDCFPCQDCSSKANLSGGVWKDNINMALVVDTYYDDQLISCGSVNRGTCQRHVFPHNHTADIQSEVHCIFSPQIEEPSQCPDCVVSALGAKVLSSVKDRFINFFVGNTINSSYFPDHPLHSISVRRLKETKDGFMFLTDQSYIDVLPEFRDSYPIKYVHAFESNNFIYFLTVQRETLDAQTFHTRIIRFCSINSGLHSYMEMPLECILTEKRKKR
T1 sequence (P08581 25-1390): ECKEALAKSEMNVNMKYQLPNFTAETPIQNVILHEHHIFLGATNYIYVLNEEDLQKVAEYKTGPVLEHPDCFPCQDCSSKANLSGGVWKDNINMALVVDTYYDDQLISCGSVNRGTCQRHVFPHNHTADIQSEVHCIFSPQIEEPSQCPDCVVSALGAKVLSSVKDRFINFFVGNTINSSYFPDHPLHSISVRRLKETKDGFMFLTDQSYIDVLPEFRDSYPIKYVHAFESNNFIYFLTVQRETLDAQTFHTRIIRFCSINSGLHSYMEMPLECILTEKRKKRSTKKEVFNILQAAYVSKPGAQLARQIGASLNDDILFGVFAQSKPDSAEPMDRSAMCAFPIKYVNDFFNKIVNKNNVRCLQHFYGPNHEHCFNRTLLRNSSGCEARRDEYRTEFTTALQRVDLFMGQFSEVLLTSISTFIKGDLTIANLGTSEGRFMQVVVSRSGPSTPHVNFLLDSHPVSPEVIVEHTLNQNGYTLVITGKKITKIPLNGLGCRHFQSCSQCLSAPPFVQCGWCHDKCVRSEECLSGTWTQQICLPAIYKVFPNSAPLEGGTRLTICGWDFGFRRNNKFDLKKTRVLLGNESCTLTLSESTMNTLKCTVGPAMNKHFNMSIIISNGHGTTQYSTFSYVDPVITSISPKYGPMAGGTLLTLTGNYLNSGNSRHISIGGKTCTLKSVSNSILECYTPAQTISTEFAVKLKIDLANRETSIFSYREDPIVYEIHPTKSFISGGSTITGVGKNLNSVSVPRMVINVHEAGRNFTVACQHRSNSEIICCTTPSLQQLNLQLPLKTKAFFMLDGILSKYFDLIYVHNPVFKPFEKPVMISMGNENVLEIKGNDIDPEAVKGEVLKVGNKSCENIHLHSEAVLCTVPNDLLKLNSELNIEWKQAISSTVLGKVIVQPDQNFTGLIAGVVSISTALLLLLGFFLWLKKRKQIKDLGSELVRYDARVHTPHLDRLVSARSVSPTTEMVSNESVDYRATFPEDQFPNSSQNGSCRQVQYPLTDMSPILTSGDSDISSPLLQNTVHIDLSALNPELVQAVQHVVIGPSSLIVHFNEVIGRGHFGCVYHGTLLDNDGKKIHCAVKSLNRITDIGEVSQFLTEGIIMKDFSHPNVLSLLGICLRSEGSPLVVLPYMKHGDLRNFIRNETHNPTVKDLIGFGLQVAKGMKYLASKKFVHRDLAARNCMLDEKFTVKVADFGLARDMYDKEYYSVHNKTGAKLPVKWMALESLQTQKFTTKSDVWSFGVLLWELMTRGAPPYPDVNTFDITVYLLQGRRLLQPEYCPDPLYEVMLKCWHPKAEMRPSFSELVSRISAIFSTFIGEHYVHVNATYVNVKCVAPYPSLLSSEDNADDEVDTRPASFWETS

Row | Structure (SMILES) | DC50 [1] | IC50 [2] | IC50 [3] | DC50 [4] | IC50 [5] | DC50 [6]
1 | Cn1cc(-c2cnc3c(nnn3C[C@@H]3CN(c4ncc(N5CC(CN6CCN(c7ccc8c(=O)n(C9CCC(=O)NC9=O)ncc8c7)CC6)C5)cn4)CCO3)n2)cn1 (stereo partly drawn) [Example D-1, 3-(6-(4-((1-(2-((S)-2-((5-(1-methyl-1H-pyrazole-4-yl)-1H-[1,2,3]triazolo[4,5-b]pyrazine-1-yl)methyl)morpholine-5-il)azetidin-3-il)methyl)piperazine-1-il)piperazine-1-il)1-oxopthalazine-2(1H)-day)piperidine-2,6-dione] | ≤ 100 nM | ≤ 100 nM | ≤ 100 nM | ≤ 100 nM | ≤ 100 nM | > 1000 nM
2 | Cc1nn(C2CCC(=O)NC2=O)c(=O)c2ccc(N3CCN(CC4CCN(CC5CN(c6cnc(N7CCO[C@H](Cn8nnc9nc(-c%10cnn(C)c%10)cnc98)C7)nc6)C5)CC4)CC3)cc12 (stereo partly drawn) [Example D-4] | ≤ 100 nM | ≤ 100 nM | ≤ 100 nM | ≤ 100 nM | ≤ 100 nM | ≤ 1000 nM
3 | Cn1cc(-c2cnc3c(nnn3C[C@@H]3CN(c4ncc(N5CC(CN6CCN(CC7CCN(c8ccc(NC9CCC(=O)NC9=O)cc8F)CC7)CC6)C5)cn4)CCO3)n2)cn1 (stereo partly drawn) [Example D-5] | > 1000 nM | > 1000 nM | ≤ 100 nM | > 1000 nM | ≤ 100 nM | > 1000 nM
4 | Cc1nn(C2CCC(=O)NC2=O)c(=O)c2ccc(N3CCO[C@@H](COc4cnc(-c5cccc(Cn6nc(-c7cccc(C#N)c7)ccc6=O)c5)nc4)C3)cc12 (stereo partly drawn) [Example E-1] | ≤ 100 nM | ≤ 100 nM | ≤ 100 nM | ≤ 100 nM | ≤ 100 nM | > 1000 nM
5 | N#Cc1cccc(-c2ccc(=O)n(Cc3cccc(-c4ncc(OC[C@H]5CN(c6ccc7c(=O)n(C8CCC(=O)NC8=O)ncc7c6)CCO5)cn4)c3)n2)c1 (stereo partly drawn) [Example E-2, 3-(1-(3-(5-(((2R)-4-(2-(2,6-dioxopiperidin-3-yl)-1-oxo-1,2-dihydrophthalazine-6-yl)morpholine-2-yl)methoxy)pyrimidin-2-yl)benzyl)6-oxo-1,6-dihydropyridazine-3-il)benzonitrile] | ≤ 100 nM | ≤ 100 nM | ≤ 100 nM | ≤ 100 nM | – | –
6 | N#Cc1cccc(-c2ccc(=O)n(Cc3cccc(-c4ncc(OCCN5CCN(c6ccc7c(=O)n(C8CCC(=O)NC8=O)ncc7c6)CC5)cn4)c3)n2)c1 (stereo not drawn) [Example E-4] | ≤ 100 nM | ≤ 100 nM | ≤ 100 nM | ≤ 100 nM | ≤ 100 nM | > 1000 nM
7 | Cc1nn(C2CCC(=O)NC2=O)c(=O)c2ccc(N3CCN(CCOc4cnc(-c5cccc(Cn6nc(-c7cccc(C#N)c7)ccc6=O)c5)nc4)CC3)cc12 (stereo not drawn) [Example E-5] | ≤ 100 nM | ≤ 100 nM | ≤ 100 nM | ≤ 100 nM | ≤ 100 nM | ≤ 100 nM
8 | N#Cc1cccc(-c2ccc(=O)n(Cc3cccc(-c4ncc(OCCN5CCN(c6ccc(NC7CCC(=O)NC7=O)cc6F)CC5)cn4)c3)n2)c1 (stereo not drawn) [Example E-6, 3-(1-(3-(5-(2-(4-(4-((2,6-dioxopiperidin-3-yl)amino)2-fluorophenyl)piperazine-1-yl)ethoxy)pyrimidine-2-yl)benzyl)6-oxo-1,6-dihydropyridazine-3-yl)benzonitrile] | > 1000 nM | – | ≤ 100 nM | – | ≤ 100 nM | > 1000 nM
9 | N#Cc1cccc(-c2ccc(=O)n(Cc3cccc(-c4ncc(N5CCN(CC6CN(c7ccc(NC8CCC(=O)NC8=O)cc7F)C6)CC5)cn4)c3)n2)c1 (stereo not drawn) [Example E-7] | ≤ 100 nM | – | ≤ 100 nM | – | ≤ 100 nM | ≤ 100 nM
10 | N#Cc1cccc(-c2ccc(=O)n(Cc3cccc(-c4ncc(N5CCN(CC6CCN(c7ccc(NC8CCC(=O)NC8=O)cc7F)CC6)CC5)cn4)c3)n2)c1 (stereo not drawn) [Example E-8] | ≤ 100 nM | ≤ 100 nM | ≤ 100 nM | ≤ 100 nM | ≤ 100 nM | > 1000 nM
